Results: US10105357B2, “Indication of antibiotic drugs for preparation of cancer inhibition pharmaceutical composition” (LAUNX BIOMEDICAL CO., LTD., priority 2014, dated 2018)
Counter-ions that a name gives are not always drawn. Like-named read-outs stand apart in the source and are kept apart here.

How the values were obtained:
cancer cell lines = experiment: Cell viability analysis (WST-1) on cancer cell lines; format: cell-based, human; details: drug 10 μM, 72 hours, WST-1; Table 3
[1] = tested on: LoVo (Colorectal Adenocarcinoma); experiment: Cell viability analysis, colon cancer LoVo; format: cell-based, human; details: Homo sapiens, LoVo, 72 h
[2] = tested on: C-33A (Cervical carcinoma); experiment: Cell viability analysis, cervical cancer C-33A; format: cell-based, human; details: Homo sapiens, 72 h; C-33A; repeated experiment; read-out: The results of antibiotic drug inhibiting cancer cell lines (cell viability analysis), C-33A
[3] = tested on: HepG2 (Hepatocellular Carcinoma); experiment: Cell viability analysis, hepatic cancer HepG2; format: cell-based, human; details: Homo sapiens, HepG2, 72 h
U-2OS = experiment: Cell viability analysis, osteosarcoma U-2OS; format: cell-based, human; details: Homo sapiens, 72 h; U2OS; repeated experiment; read-out: The results of antibiotic drug inhibiting cancer cell lines (cell viability analysis), U2OS
AsPC-1 = experiment: Cell viability analysis, pancreatic cancer AsPC-1; format: cell-based, human; details: Homo sapiens, ASPC1, 72 h; AsPC-1; repeated experiment; read-out: The results of antibiotic drug inhibiting cancer cell lines (cell viability analysis), AsPC-1
T24 = experiment: Cell viability analysis, bladder cancer T24; format: cell-based, human; details: Homo sapiens, T-24, 72 h; T24; repeated experiment; read-out: The results of antibiotic drug inhibiting cancer cell lines (cell viability analysis), T24
[4] = tested on: HCT116 (p53+) (Colorectal Carcinoma)
[5] = tested on: Hep3B (hepatocellular carcinoma); experiment: Cell viability analysis, hepatic cancer Hep3B; format: cell-based, human; details: Homo sapiens, 72 h; Hep3B; repeated experiment; read-out: The results of antibiotic drug inhibiting cancer cell lines (cell viability analysis), Hep3B
TOV-21G = experiment: Cell viability analysis, ovarian cancer TOV-21G; format: cell-based, human; details: Homo sapiens, TOV21G, 72 h; TOV-21G; repeated experiment; read-out: The results of antibiotic drug inhibiting cancer cell lines (cell viability analysis), TOV-21G
BxPC-3 = experiment: Cell viability analysis, pancreatic cancer BxPC-3; format: cell-based, human; details: Homo sapiens, 72 h; BxPC-3; repeated experiment; read-out: The results of antibiotic drug inhibiting cancer cell lines (cell viability analysis), BxPC-3
[6] = tested on: MDA-MB-231 (Mammary Gland, Adenocarcinoma); experiment: Cell viability analysis, breast cancer MDA-MB-231; format: cell-based, human; details: Homo sapiens, MDA-MB-231, 72 h; MDA-MB231; repeated experiment; read-out: The results of antibiotic drug inhibiting cancer cell lines (cell viability analysis), MDA-MB231
[7] = tested on: HL-60 (Acute Promyelocytic Leukemia); experiment: Cell viability analysis, leukemia HL-60; format: cell-based, human; details: Homo sapiens, HL-60, 72 h, drug 10 μM, 72 hours, WST-1, OD450 nm; read-out: cell viability (survival rate), HL-60
[8] = tested on: HeLa (Cervix Adenocarcinoma); experiment: Cell viability analysis, cervical cancer HeLa; format: cell-based, human; details: Homo sapiens, HeLa, 72 h, HeLa
NIH: OVCAR-3 = experiment: Cell viability analysis, ovarian cancer NIH: OVCAR-3; format: cell-based, human; details: Homo sapiens, 72 h; NIH-OVCAR-3; repeated experiment; read-out: The results of antibiotic drug inhibiting cancer cell lines (cell viability analysis), NIH-OVCAR-3
[9] = tested on: AGS (Gastric Adenocarcinoma); experiment: Cell viability analysis, gastric cancer AGS; format: cell-based, human; details: Homo sapiens, 72 h
[10] = tested on: HI650 (Lung Adenocarcinoma); experiment: Cell viability analysis, lung cancer HI650; format: cell-based, human; details: Homo sapiens, NCI-H1650, 72 h
[11] = tested on: A549 (Lung Adenocarcinoma); experiment: Cell viability analysis, lung cancer A549; format: cell-based, human; details: Homo sapiens, A549, 72 h
[12] = tested on: PC3 (p53−) (Prostate Adenocarcinoma); experiment: Cell viability analysis, prostate cancer PC3; format: cell-based, human; details: Homo sapiens, 72 h
[13] = tested on: MCF7 (Mammary Gland, Adenocarcinoma); experiment: Cell viability analysis, breast cancer MCF7; format: cell-based, human; details: Homo sapiens, MCF7, 72 h
[14] = tested on: MKN-45 (Gastric Adenocarcinoma); experiment: Cell viability analysis, gastric cancer MKN-45; format: cell-based, human; details: Homo sapiens, MKN-45, 72 h
[15] = tested on: A375 (Amelanotic Melanoma); experiment: Cell viability analysis, skin cancer A375; format: cell-based, human; details: Homo sapiens, A-375, 72 h
[16] = tested on: 786-O (Renal adenocarcinoma); experiment: Cell viability analysis, renal cancer 786-O; format: cell-based, human; details: Homo sapiens, 786-0, 72 h; 786-O; repeated experiment; read-out: The results of antibiotic drug inhibiting cancer cell lines (cell viability analysis), 786-O
[17] = tested on: SAS (Tongue squamous cell carcinoma); experiment: Cell viability analysis, tongue cancer SAS; format: cell-based, human; details: Homo sapiens, 72 h; SAS; repeated experiment; read-out: The results of antibiotic drug inhibiting cancer cell lines (cell viability analysis), SAS
[18] = tested on: BCC (basal cell carcinoma); experiment: Cell viability analysis, skin cancer BCC; format: cell-based, human; details: Homo sapiens, 72 h; BCC; repeated experiment; read-out: The results of antibiotic drug inhibiting cancer cell lines (cell viability analysis), BCC

In the case of `CCc1cc2c(cc1CC)CC(NC[C@H](O)c1ccc(O)c3[nH]c(=O)ccc13)C2` [Indacaterol Maleate], the “inhibition effect on different cancer cell lines” value (cancer cell lines) is reported as “significant inhibition effect”, the viability at 10 µM ([1]; read-out: The results of antibiotic drug inhibiting cancer cell lines (cell viability analysis), LoVo, repeated experiment) is reported as 79.1% and the viability at 10 µM ([1]; read-out: cell viability (survival rate), LoVo, drug 10 μM, 72 hours, WST-1, OD450 nm) is reported as 61.4%. It also gave a viability at 10 µM [2] of 94.3%, a viability at 10 µM ([3]; HepG2, repeated experiment, read-out: The results of antibiotic drug inhibiting cancer cell lines (cell viability analysis), HepG2) of 84.4% and a viability at 10 µM ([3]; drug 10 μM, 72 hours, WST-1, OD450 nm, read-out: cell viability (survival rate), HepG2) of 81.2%. For the same compound, the viability at 10 µM (U-2OS) was 62.6%, the viability at 10 µM (AsPC-1) was 85.4% and the viability at 10 µM (T24) was 122%. For the same compound, the viability [4] was 91.9%, the viability at 10 µM [5] was 97.6% and the viability at 10 µM (TOV-21G) was 95.3%. It also gave a viability at 10 µM (BxPC-3) of 91.4%, a viability at 10 µM [6] of 103% and a viability at 10 µM [7] of 87.2%. The viability at 10 µM ([8]; repeated experiment, read-out: The results of antibiotic drug inhibiting cancer cell lines (cell viability analysis), HeLa) was 96.6%, the viability at 10 µM ([8]; drug 10 μM, 72 hours, WST-1, OD450 nm, read-out: cell viability (survival rate), HeLa) was 71.8% and the viability at 10 µM (NIH: OVCAR-3) was 79.3%. For the same compound, the viability at 10 µM ([9]; AGS, repeated experiment, read-out: The results of antibiotic drug inhibiting cancer cell lines (cell viability analysis), AGS) was 50.2%, the viability at 10 µM ([9]; drug 10 μM, 72 hours, WST-1, OD450 nm, read-out: cell viability (survival rate), AGS) was 54.1% and the viability at 10 µM ([10]; H1650, repeated experiment, read-out: The results of antibiotic drug inhibiting cancer cell lines (cell viability analysis), H1650) was 86.6%. The viability at 10 µM ([10]; drug 10 μM, 72 hours, WST-1, OD450 nm, read-out: cell viability (survival rate), H1650) was 36%, the viability at 10 µM ([11]; A549, repeated experiment, read-out: The results of antibiotic drug inhibiting cancer cell lines (cell viability analysis), A549) was 79.6% and the viability at 10 µM ([11]; drug 10 μM, 72 hours, WST-1, OD450 nm, read-out: cell viability (survival rate), A549) was 65.1%. The viability at 10 µM ([12]; PC-3, repeated experiment, read-out: The results of antibiotic drug inhibiting cancer cell lines (cell viability analysis), PC-3) was 100%, the viability at 10 µM ([12]; drug 10 μM, 72 hours, WST-1, OD450 nm, read-out: cell viability (survival rate), PC3) was 55.5% and the viability at 10 µM ([13]; MCF-7, repeated experiment, read-out: The results of antibiotic drug inhibiting cancer cell lines (cell viability analysis), MCF-7) was 72.5%. The viability at 10 µM ([13]; drug 10 μM, 72 hours, WST-1, OD450 nm, read-out: cell viability (survival rate), MCF7) was 68.7%, the viability at 10 µM ([14]; MKN-45, repeated experiment, read-out: The results of antibiotic drug inhibiting cancer cell lines (cell viability analysis), MKN-45) was 84.5% and the viability at 10 µM ([14]; drug 10 μM, 72 hours, WST-1, OD450 nm, read-out: cell viability (survival rate), MKN-45) was 30.3%. It also gave a viability at 10 µM ([15]; A375, repeated experiment, read-out: The results of antibiotic drug inhibiting cancer cell lines (cell viability analysis), A375) of 87.2%, a viability at 10 µM ([15]; drug 10 μM, 72 hours, WST-1, OD450 nm, read-out: cell viability (survival rate), A375) of 45.7% and a viability at 10 µM [16] of 82.6%. It also gave a viability at 10 µM [17] of 61.7% and a viability at 10 µM [18] of 82.1%.
